# In patent US6624202B2, “Inhibitors of copper-containing amine oxidases” (priority 2000, dated 2003):
# Structures can show the parent of a compound that is named as a salt. Where two headings read alike, the source gives them in different places.
# Tests used:
# [1] = target: T1, Recombinant human VAP-1 SSAO (Homo sapiens, UniProt Q16853); test: In vitro inhibition of VAP-1 SSAO activity (coupled colourimetric method); format: biochemical; conditions: for IC50: 1 mM benzylamine, 1 h at 37° C.
# T1 sequence (Q16853 1-763): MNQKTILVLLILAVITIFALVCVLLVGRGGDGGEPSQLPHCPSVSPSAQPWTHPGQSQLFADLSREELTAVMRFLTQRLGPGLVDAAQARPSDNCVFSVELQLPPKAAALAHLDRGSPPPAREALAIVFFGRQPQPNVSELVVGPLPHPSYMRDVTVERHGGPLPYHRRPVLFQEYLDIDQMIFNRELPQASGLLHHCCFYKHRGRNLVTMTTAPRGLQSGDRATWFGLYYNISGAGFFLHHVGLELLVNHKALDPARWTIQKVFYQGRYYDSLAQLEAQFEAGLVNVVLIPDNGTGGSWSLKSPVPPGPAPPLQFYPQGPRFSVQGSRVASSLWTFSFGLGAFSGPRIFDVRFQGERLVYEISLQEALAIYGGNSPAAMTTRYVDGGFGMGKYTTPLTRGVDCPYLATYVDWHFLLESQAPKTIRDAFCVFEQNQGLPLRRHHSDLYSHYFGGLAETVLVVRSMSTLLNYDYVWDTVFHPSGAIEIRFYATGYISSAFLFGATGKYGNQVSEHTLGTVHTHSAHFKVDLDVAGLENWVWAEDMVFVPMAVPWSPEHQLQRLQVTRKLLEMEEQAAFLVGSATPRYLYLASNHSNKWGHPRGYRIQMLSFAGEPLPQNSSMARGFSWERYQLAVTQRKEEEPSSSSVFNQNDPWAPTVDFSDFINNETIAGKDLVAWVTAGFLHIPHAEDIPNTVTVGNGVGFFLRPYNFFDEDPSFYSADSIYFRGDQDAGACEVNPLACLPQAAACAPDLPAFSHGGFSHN
# Experimental: VAP-1 SSAO activity was measured using the coupled colourimetric method essentially as described for monoamine oxidase and related enzymes (Holt, A., et al., Anal. Biochem. 244:384-392 (1997)). Recombinant human VAP-1 SSAO expressed in Chinese Hamster Ovary (CHO) cells was used as a source of VAP-1 SSAO for activity measurements. […] These cells and their culture have previously been described (Smith, D. J., et al., J. Exp. Med. 188:17-27 (1998)). A cell lysate was prepared by suspending approximately 3.6×10^8 cells in 25 ml lysis buffer (150 mM NaCl, 10 mM Tris-Base pH 7.2, 1.5 mM MgCl2, 1% NP40) and incubating at 4° C. overnight on a rotating table. The lysate was clarified by centrifugation at 18000 g for 5 min at room temperature and the supernatant used directly in the assay. The VAP-1 SSAO assay was performed in 96 well microtitre plates as follows. To each well was added a predetermined amount of inhibitor if required. […] Controls lacked inhibitor. The inhibitor was in a total volume of 20 μl in water. The following reagents were then added. 0.2 M potassium phosphate buffer pH 7.6 to a total reaction volume of 200 μl, 45 μl of freshly made chromogenic solution containing 1 mM 2,4-dichlorophenol, 500 μM 4-aminoantipyrine and 4 U/ml horseradish peroxidase and an amount of CHO cell lysate containing VAP-1 SSAO that caused a change of 0.6 A490 per h. […] The plates were incubated for 30 min at 37° C. and the background absorbance measured at 490 nm using a Wallac Victor II multilabel counter. To initiate the enzyme reaction 20 μl 10 mM benzylamine (final concentration=1 mM) was added and the plate incubated for 1 h at 37° C. The increase in absorbance, reflecting VAP-1 SSAO activity, was measured at 490 nm. Inhibition was presented as percent inhibition compared to control after correcting for background absorbance and IC50 values calculated using GraphPad Prism.
# Total rat MAO = Total rat MAO activity (rat liver mitochondrial preparation, colourimetric); format: biochemical; conditions: rat liver mitochondria; 0.5 mM tyramine; 1 h at 37° C.; read-out: Total MAO inhibitory activity IC50
# Experimental: Rat MAO was prepared from rat liver by rinsing the 1 g liver sample several times in 14 ml KCl-EDTA-solution to remove all blood. Then 1 g liver sample was homogenised in 4 ml ice-cold potassium phosphate buffer (0.1 M, pH 7.4) with an Ultra-Turrax homogeniser (setting 11 000 rpm, 4×10 s). After centrifugation at 500 g for 10 min at 4° C. the supernatant was carefully withdrawn and was centrifuged at 12 300 g for 15 min at 4° C. The supernatant was discharged and sedimented mitochondria were resuspended in 4 ml fresh phosphate buffer and centrifuged as previously. The mitochondria were suspended in 4 ml phosphate buffer and homogenized with an Ultra-Turrax homogeniser (setting 11 000 rpm, 2×10 s). Mitochondrial preparate was aliquoted and stored at −70° C. Total MAO activity was measured in a similar way as for VAP-1 SSAO except that 2,4-dichlorophenol was replaced by 1 mM vanillic acid. To each well was added a predetermined amount of inhibitor if required. The amount of inhibitor varied in each assay but was generally at a final concentration of between 10 nM and 800 μM. Controls lacked inhibitor. The inhibitor was in a total volume of 20 μl in water. The following reagents were then added. 0.2 M potassium phosphate buffer pH 7.6 for a total reaction volume of 300 μl, 50 μl of fleshly made chromogenic solution (as above) and 50 μl of MAO preparation. The plates were incubated for 30 min at 37° C. and the background absorbance measured at 490 nm using a Wallac Victor II multilabel counter. To initiate the enzyme reaction 20 μl of 5 mM tyramine (final concentration 0.5 mM) was added and the plate incubated for 1 h at 37° C. The increase in absorbance, reflecting MAO activity, was measured at […]. Inhibition was presented as percent inhibition compared to control after correcting for background absorbance and IC50 values calculated using GraphPad Prism. Clorgyline and pargyline (inhibitors of MAO-A and -B respectively) at 0.5 μM were added to some wells as positive controls for MAO inhibition.
# [2] = lysate of CHO cells expressing recombinant human VAP-1 SSAO, read-out: VAP-1 SSAO inhibitory activity IC50
# [3] = ratio of total rat MAO IC50 to human VAP-1 SSAO IC50
# [4] = VAP-1 SSAO inhibitory activity IC50, lysate of CHO cells expressing recombinant human VAP-1 SSAO
Compound,"IC50 [1, 2] [nM]","Selectivity for VAP-1 SSAO over MAO [1, 3]",IC50 (Total rat MAO) [nM],"IC50 [1, 4] [nM]",Selectivity for VAP-1 SSAO over MAO [1]
2-(1-methylhydrazino)-1-phenylethanol hydrogenmaleate [Compound 6],65,137,8900,,
C[C@@H]([C@H](O)c1ccccc1)N(C)N (racemic) [Compound 10],,120,36000,300,
CC(C(O)c1ccccc1)N(C)N (racemic) [Compound 11],,94,16000,170,
C[C@@H]([C@H](O)c1ccccc1)N(C)N (racemic) [Compound 12],,138,,290,
CCN(N)[C@@H](C)[C@H](O)c1ccccc1 (racemic) [Compound 13],1520,16,,,
CCCN(N)C(C)C(O)c1ccccc1 (racemic) [Compound 14],129000,>6,,,
C[C@@H]([C@H](O)c1ccccc1)N(N)CC1CC1 (racemic) [Compound 15],1380,7,,,
CC(C(O)c1ccccc1)N(N)Cc1ccccc1 (racemic) [Compound 16],4000,62,,,
C[C@@H]([C@H](O)c1ccccc1)N(N)Cc1ccccc1 (racemic) [Compound 17],34000,6,,,
COc1ccc(CN(N)C(C)C(O)c2ccccc2)cc1 (racemic) [Compound 18],2600,9,,,
CN(N)C(C)(C)C(O)c1ccccc1 (racemic) [Compound 20],520,98,,,
CC[C@@H]([C@H](O)c1ccccc1)N(C)N (racemic) [Compound 21],260,158,,,
CCC[C@@H](NN)[C@@H](O)c1ccccc1 (racemic) [Compound 22],1200,9,,,
CCC[C@@H]([C@H](O)c1ccccc1)N(C)N (racemic) [Compound 23],260,108,,,
CC(C)CN(N)CC(O)c1ccccc1 (racemic) [Compound 24],350,32,,,
CN(N)CC(O)c1ccccc1Cl (racemic) [Compound 29],270,85,,,
CN(N)CC(O)c1ccc(Cl)cc1 (racemic) [Compound 30],310,,21000,,68
COc1cccc(C(O)CNN)c1 (racemic) [Compound 33],52,175,9100,,

Compound,"IC50 [1, 2] [nM]","Selectivity for VAP-1 SSAO over MAO [1, 3]",IC50 (Total rat MAO) [nM],"IC50 [1, 4] [nM]",Selectivity for VAP-1 SSAO over MAO [1]
COc1cccc(C(O)CN(C)N)c1 (racemic) [Compound 34],280,,44000,,157
COc1ccc(C(O)CNN)cc1 (racemic) [Compound 35],29,207,,,
COc1ccc(C(O)CNN)cc1 (racemic) [Compound 36],17,294,,,
COc1ccc(C(CN(C)N)OC)cc1 (racemic) [Compound 37],420,105,,,
NN(Cc1ccccc1)C(CO)Cc1ccccc1 (racemic) [Compound 38],> 50000,≈10,,,
NN(Cc1ccccc1)C1CCCCC1O (racemic) [Compound 41],21900,5,,,
NN(Cc1ccccc1)[C@@H]1CCCC[C@H]1O (racemic) [Compound 42],3700,29,106000,,
CN(N)[C@@H]1CCCC[C@]1(O)c1ccccc1 (racemic) [Compound 43],520,19,,,
COc1cc2c(cc1OC)C(CCO)N(N)CC2 (racemic) [Compound 45],8100,6,,,
NN1Cc2ccccc2CC1CO (racemic) [Compound 46],> 10000,<61,,,
COc1cc2c(cc1OC)CN(N)C(CO)C2 (racemic) [Compound 47],> 10000,<150,,,
"C[C@@H]([C@H](O)c1ccccc1)N(C)N (relative stereo) [Compound 2, (1R*,2S*)-2-(1-Methylhydrazino)-1-phenyl-1-propanol hydrochloride]",,111,,350,
"C[C@H]([C@@H](O)c1ccccc1)[N+](C)(C)N (relative stereo) [Compound 4, (1R*,2S*)-1-(2-hydroxy-1-methyl-2-phenylethyl)-1,1-dimethylhydrazinium iodide]",> 50000,≈10,,,
"CN(N)[C@H](c1ccccc1)C(O)c1ccccc1 (stereo in doubt) [Compound 5, (1R*,2S*)-2-(1-methylhydrazino)-1,2-diphenylethanol hydrogemnaleate]",410,132,,,
"C[C@@H]([C@H](O)c1ccccc1)N(C)N [Compound 1, (1R,2S)-2-(1-Methylhydrazino)-1-phenyl-1-propanol hydrogenmaleate]",,141,,220,
"COc1cccc(C(CN(C)N)OC)c1 (stereo not shown) [Compound 7, 1-[2-methoxy-2-(m-methoxyphenyl)ethyl]-1-methylhydrazine Hydrogenfumarate]",410,107,,,
"COc1cc2c(cc1OC)C(CO)N(N)CC2 (stereo not shown) [Compound 8, 2-Amino-6,7-dimethoxy-1,2,3,4-tetrahydroisoquinoline-1-methanol hydrochloride]",> 10000,<8,,,
"COc1ccc(C(O)CN(C)N)cc1 (stereo not shown) [Compound 9, 2-(1-methylhydrazino)-1-(p-methoxyphenyl)ethanol hydrogenfumarate]",310,116,,,
